The text below walks through data of PMC7108740, “Exploring the molecular structures that confer ligand selectivity for galanin type II and III receptors” (PLoS ONE, 2020).

Usually EC50 stands for the concentration needed to bring the measured effect to its halfway point.

Type in all cases: cell-based
Assay [1] deals with T1, GALR3 single mutant A^264P (Homo sapiens, UniProt O60755, A264P).
T1 construct: expressed in transfected cells; host or cells: HEK293 cells stably expressing Gqi
The assay is described as follows: SRE-luc luciferase assay, GALR3 A264P. The note with it: GALR3 A^264P; SRE-luc in HEK293 Gqi cells, ligand 6 h; mean ± S.E.; SEM. The text has this: (§1) For domain swapping between GALR2 and GALR3, individual cDNA fragments of interest were amplified by polymerase chain reaction (PCR) with Pfu polymerase (ELPIS Biotech, Daejeon, Korea) and two specific primers, one corresponding to the 5' or 3' end of the GALR2 or GALR3 cDNA and the other to the region of overlap between the two receptors. The two resulting fragments, one from GALR2 and the other from GALR3, were subjected to a second round of PCR to generate the chimeric cDNAs. To construct single, double-, triple-, pentuple-, hextuple-, and septuple-mutant receptors, amino acids of GALR3 were substituted for the amino acids at the corresponding positions in GALR2 using PCR-based site-directed mutagenesis. All of the chimeric constructs were cloned into the pcDNA3 expression vector at HindⅢ and XbaⅠ sites. The DNA sequences of the chimeras were verified by automatic sequencing. […] The luciferase activity in 50 μl cell extract was determined using a luciferase assay system according to the standard protocol for the Synergy 2 Multi-Mode Microplate Reader (BioTek, Winooski, VT, USA). […] The concentrations of agonists that induced half-maximal stimulation (EC50) were calculated using the GraphPad PRISM5 software (GraphPad software, Inc., San Diego, CA). […]

Assay [2] has as its target T2, GALR3 single mutant P^267R (Homo sapiens, UniProt O60755, P267R).
T2 construct: expressed in transfected cells; host or cells: HEK293 cells stably expressing Gqi
Put plainly: SRE-luc luciferase assay, GALR3 P267R. The note with it: GALR3 P^267R; SRE-luc in HEK293 Gqi cells, ligand 6 h; mean ± S.E.; SEM.
Description: as §1

Assay [3] addresses T3, GALR3 single mutant C^272L (Homo sapiens, UniProt O60755, C272L).
T3 construct: expressed in transfected cells; host or cells: HEK293 cells stably expressing Gqi
The assay is described as follows: SRE-luc luciferase assay, GALR3 C272L. The following applies: GALR3 C^272L; SRE-luc in HEK293 Gqi cells, ligand 6 h; mean ± S.E.; SEM.
Description: as §1

Assay [4] deals with T4, GALR3 (Homo sapiens, UniProt O60755).
T4 sequence (O60755 1-368): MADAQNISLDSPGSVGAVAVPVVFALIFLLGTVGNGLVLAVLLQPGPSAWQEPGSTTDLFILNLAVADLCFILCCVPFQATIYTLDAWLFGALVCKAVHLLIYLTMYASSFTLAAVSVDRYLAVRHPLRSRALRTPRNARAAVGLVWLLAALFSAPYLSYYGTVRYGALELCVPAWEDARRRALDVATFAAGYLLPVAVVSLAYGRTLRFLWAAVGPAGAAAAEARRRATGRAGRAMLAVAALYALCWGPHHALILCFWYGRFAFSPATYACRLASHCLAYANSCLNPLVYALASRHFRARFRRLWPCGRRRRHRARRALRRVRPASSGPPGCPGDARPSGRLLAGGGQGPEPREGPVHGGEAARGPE
The assay is described as follows: cAMP assay (inhibition of forskolin-induced cAMP), WT GALR3. The note with it: Glosensor-22F cAMP HEK293 cells, agonist 10 min then forskolin 10 μM, mean ± SE, SEM. The arrangement: expressed in transfected cells; host or cells: HEK293 cells stably expressing pGlosensor-22F cAMP plasmid. Here is the method:
SPX-induced or Qu-SPX-induced cyclic adenosine monophosphate (cAMP) mobilization was measured in HEK293 cells stably expressing the pGlosensor^TM-22F cAMP plasmid (Promega Corp., Madison, WI, USA). The Glosensor-22F cAMP HEK293 cells were seeded on 96-well plates at a density of 2.0 × 10^4 cells/well 24 h before transfection. A mixture including 100 ng expression plasmid and lipofectamine 2000 reagent in diluted Opti-MEM (Gibco) was incubated at room temperature for 20 min. The mixtures were added into each well according to the manufacturer's instructions (Invitrogen, CA, USA). After 48 h, Glosensor cAMP substrates were added to the transfected cells in CO2-independent media. After 2 h, the cells were incubated with a range of agonist concentrations or vehicle for 10 min and then exposed to foskolin (10 μM). Luminescence was measured for up to 30 min using a Microplate Reader (BioTek, Winooski, VT, USA).
Data analysis was performed by non-linear regression with a sigmoidal dose-response curve. The concentrations of agonists that induced half-maximal stimulation (EC50) were calculated using the GraphPad PRISM5 software (GraphPad software, Inc., San Diego, CA). All data are presented as the mean ± standard error (SE) of at least three independent experiments. […]
(In general: cAMP levels reflect the balance of adenylyl cyclase and phosphodiesterase activity.)

T2 sequence (O60755 whole entry P267R): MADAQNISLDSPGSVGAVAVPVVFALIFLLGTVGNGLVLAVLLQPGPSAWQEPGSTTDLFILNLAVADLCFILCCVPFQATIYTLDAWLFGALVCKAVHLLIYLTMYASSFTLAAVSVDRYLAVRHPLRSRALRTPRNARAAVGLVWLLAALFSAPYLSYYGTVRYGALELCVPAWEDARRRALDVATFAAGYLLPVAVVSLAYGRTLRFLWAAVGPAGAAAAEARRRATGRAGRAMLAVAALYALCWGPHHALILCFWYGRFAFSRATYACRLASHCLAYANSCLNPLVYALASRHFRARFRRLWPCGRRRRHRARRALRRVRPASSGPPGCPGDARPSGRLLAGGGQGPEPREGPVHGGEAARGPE
T1 sequence (O60755 whole entry A264P): as the sequence (O60755 whole entry P267R) above, with A264P, R267P counted along it
T3 sequence (O60755 whole entry C272L): as the sequence (O60755 whole entry P267R) above, with R267P, C272L counted along it

In the case of `CSCC[C@H](NC(=O)[C@H](C)NC(=O)[C@H](CCC(N)=O)NC(=O)[C@@H]1CCCN1C(=O)[C@@H](NC(=O)[C@H](Cc1c[nH]c2ccccc12)NC(=O)[C@@H](N)CC(N)=O)[C@@H](C)O)C(=O)N[C@@H](CC(C)C)C(=O)N[C@@H](Cc1ccc(O)cc1)C(=O)N[C@@H](CC(C)C)C(=O)N[C@@H](CCCCN)C(=O)NCC(=O)N[C@@H](C)C(=O)N[C@@H](CCC(N)=O)C(N)=O` [SPX, reference compound], the EC50 in assay [1] was 274 ± 76 nM; in assay [2], 115 ± 48.7 nM; in assay [3], 28.8 ± 6.96 nM; in assay [4], 117 ± 51.4 nM.
